Laboratory results: ChEMBL document CHEMBL4219169, “Sulfoximines as potent RORγ inverse agonists” (Bioorg Med Chem Lett, 2018)

Tests used:
[1] = Lipophilicity, log D of the compound at pH 6.5 by HPLC analysis; type: physicochemical; conditions: buffer
[2] = Fraction unbound in human plasma at 5 uM incubated for 4 hrs at 37 degC by LC-MS/MS method; type: ADME, cell-free
[3] = Intrinsic clearance in human hepatocytes assessed per million cells at 1 uM incubated for 5 to 90 mins by LC-MS/MS method; type: ADME, cell-based, Hepatocyte; conditions: read-out: CLH
[4] = Phototoxicity against human neonatal keratinocytes assessed as cell viability preincubated for 30 mins before 5 J/cm2 UV light irradiation for 15 mins followed by treatment medium replacement with fresh culture medium after 24 hrs by neutral red dye-based assay; conditions: 0.25 h
Salmonella typhimurium [5] = assay: Genotoxicity in Salmonella typhimurium TA98 in presence of aroclor-1254-induced rat S9 fraction by Ames test; type: toxicity, organism-based; conditions: salmonella enterica subsp. enterica serovar typhimurium
Salmonella typhimurium [6] = assay: Genotoxicity in Salmonella typhimurium TA98 in absence of aroclor-1254-induced rat S9 fraction by Ames test; type: toxicity, organism-based; conditions: salmonella enterica subsp. enterica serovar typhimurium
Salmonella typhimurium [7] = assay: Genotoxicity in Salmonella typhimurium TA100 in presence of aroclor-1254-induced rat S9 fraction by Ames test; type: toxicity, organism-based; conditions: salmonella enterica subsp. enterica serovar typhimurium
Salmonella typhimurium [8] = assay: Genotoxicity in Salmonella typhimurium TA100 in absence of aroclor-1254-induced rat S9 fraction by Ames test; type: toxicity, organism-based; conditions: salmonella enterica subsp. enterica serovar typhimurium
TK6 [9] = assay: Genotoxicity in human TK6 cells incubated for 27 hrs in absence of aroclor-1254-induced rat S9 fraction by Giemsa staining dependent optical microscopy based micronucleus test; type: toxicity, cell-based; conditions: tk6, 27 h
TK6 [10] = assay: Genotoxicity in human TK6 cells incubated for 3 hrs in presence of aroclor-1254-induced rat S9 fraction followed by 27 hrs recovery period by Giemsa staining dependent optical microscopy based micronucleus test; type: toxicity, cell-based; conditions: s9, 3 h
TK6 [11] = assay: Genotoxicity in human-derived p53-competent TK6 cells expressing GADD45a-dependent green fluorescent protein assessed as decrease in cell viability after 48 hrs in presence of Sprague-Dawley rat S9 fraction by FACS analysis; type: toxicity, cell-based; conditions: s9, 48 h
TK6 [12] = assay: Genotoxicity in human-derived p53-competent TK6 cells expressing GADD45a-dependent green fluorescent protein assessed as decrease in cell viability after 48 hrs in absence of Sprague-Dawley rat S9 fraction by FACS analysis; type: toxicity, cell-based; conditions: tk6, 48 h
[13] = molecular target: T1, Nuclear receptor ROR-alpha (Homo sapiens, UniProt P35398); assay: Inverse agonist activity at RORalpha (unknown origin) expressed in human HeLa-derived HG5LN cells transfected with the GAL4 DNA-binding domain fused to the RORalpha ligand-binding domain assessed as inhibition of transcriptional activity after 18 hrs by luminescence-based luciferase reporter gene assay; type: cell-based
T1 sequence (P35398 whole entry): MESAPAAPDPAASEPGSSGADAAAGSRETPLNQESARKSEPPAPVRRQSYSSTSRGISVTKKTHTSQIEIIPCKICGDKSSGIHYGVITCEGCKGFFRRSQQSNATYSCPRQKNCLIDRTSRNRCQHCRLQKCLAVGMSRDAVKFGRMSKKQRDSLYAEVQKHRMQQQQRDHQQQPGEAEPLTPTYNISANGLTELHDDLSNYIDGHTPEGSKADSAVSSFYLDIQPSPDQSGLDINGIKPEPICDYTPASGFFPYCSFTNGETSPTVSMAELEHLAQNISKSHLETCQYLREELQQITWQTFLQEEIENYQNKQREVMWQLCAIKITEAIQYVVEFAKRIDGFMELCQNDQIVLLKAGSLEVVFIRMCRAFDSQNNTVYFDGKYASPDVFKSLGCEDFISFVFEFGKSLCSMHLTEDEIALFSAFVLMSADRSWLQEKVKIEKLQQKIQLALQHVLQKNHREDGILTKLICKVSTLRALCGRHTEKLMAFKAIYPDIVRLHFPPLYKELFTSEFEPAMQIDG

TK6 [14] = assay: Genotoxicity in human TK6 cells incubated for 3 hrs in absence of aroclor-1254-induced rat S9 fraction followed by 27 hrs recovery period by Giemsa staining dependent optical microscopy based micronucleus test; type: toxicity, cell-based; conditions: tk6, 3 h
Mus musculus = assay: In vivo inverse agonist activity at RORgamma in wild type BALB/c ByJ Rj mouse model of imiquimod-induced skin inflammation model assessed as attenuation of imiquimod-induced epidermal hyperplasia at 0.01% administered topically daily for 7 days dosed 2 hrs before imiquimod administration measured on day 8 by hematoxylin and eosin staining-based histological analysis; type: functional

SMILES | logD [1] | also measured
CCc1ccc(N(CC(C)C)S(=O)(=O)c2ccc(N3CCN(C(C)=O)CC3)c(S(C)(=N)=O)c2)cc1 (stereo not drawn) | 3.8 | –
CCc1ccc(N(CC(C)C)S(=O)(=O)c2ccc(NCC3(O)CCOCC3)c(S(C)(=N)=O)c2)cc1 (stereo not drawn) | 4.1 | –
CCc1ccc(N(CC(C)C)S(=O)(=O)c2ccc(NCC3(CC)CCOCC3)c(S(C)(=N)=O)c2)cc1 (stereo not drawn) | 6.1 | –
CCc1ccc(N(CC(C)C)S(=O)(=O)c2ccc(OCC3CCOCC3)cc2)cc1 | 7.2 | –
CCc1ccc(N(CC(C)C)S(=O)(=O)c2ccc(N(C)CC3CCOCC3)c(S(C)(=N)=O)c2)cc1 (stereo not drawn) | 5.2 | –
CCc1ccc(N(CC(C)C)S(=O)(=O)c2ccc(N[C@@H](C)C3CCOCC3)c(S(C)(=N)=O)c2)cc1 (stereo partly drawn) | 5.6 | –
CCc1ccc(N(CC(C)C)S(=O)(=O)c2ccc(OCC3CCOCC3)c([S@](C)(=N)=O)c2)cc1 | – | fraction unbound at 4 h, 5 µM [2]: 0.049; hepatocyte CLint at 1 µM [3]: 160 µL/min/1e6 cells; Activity [4]: Non-Toxic; Activity (Salmonella typhimurium [5]): Non-Toxic; Activity (Salmonella typhimurium [6]): Non-Toxic; Activity (Salmonella typhimurium [7]): Non-Toxic; Activity (Salmonella typhimurium [8]): Non-Toxic; Activity (TK6 [9]): Non-Toxic; Activity (TK6 [10]): Non-Toxic; Activity (TK6 [11]): Non-Toxic; Activity (TK6 [12]): Non-Toxic; IC50 [13]: > 10 µM; Activity (TK6 [14]): Non-Toxic
CCc1ccc(N(CC(C)C)S(=O)(=O)c2ccc(NCC3(C)CCOCC3)c(S(C)(=N)=O)c2)cc1 (stereo not drawn) | 5.7 | –
CCc1ccc(N(CC(C)C)S(=O)(=O)c2ccc(OC3CCN(C(C)=O)CC3)c(S(C)(=N)=O)c2)cc1 (stereo not drawn) | 3.8 | –
CCc1ccc(N(CC(C)C)S(=O)(=O)c2ccc(OC3CCOCC3)c(S(C)(=N)=O)c2)cc1 (stereo not drawn) | 4.4 | –
CCc1ccc(N(CC(C)C)S(=O)(=O)c2ccc(CCN3CCOCC3)c(S(C)(=N)=O)c2)cc1 (stereo not drawn) | 4 | –
CCc1ccc(N(CC(C)C)S(=O)(=O)c2ccc(NCC3CCOCC3)c(S(C)(=N)=O)c2)cc1 (stereo not drawn) | 5.3 | –
CCc1ccc(N(CC(C)C)S(=O)(=O)c2ccc(OC3CCN(S(C)(=O)=O)CC3)c(S(C)(=N)=O)c2)cc1 (stereo not drawn) | 4.6 | –
CCc1ccc(N(CC(C)C)S(=O)(=O)c2ccc(N[C@H](C)C3CCOCC3)c(S(C)(=N)=O)c2)cc1 (stereo partly drawn) | 5.6 | –
CCc1ccc(N(CC(C)C)S(=O)(=O)c2ccc(NCC3(F)CCOCC3)c(S(C)(=N)=O)c2)cc1 (stereo not drawn) | 5.2 | –
CCCCC(=O)O[C@]1(C(=O)CO)[C@@H](C)C[C@H]2[C@@H]3CCC4=CC(=O)C=C[C@]4(C)[C@@]3(F)[C@@H](O)C[C@@]21C [BETAMETHASONE VALERATE] | – | Activity (Mus musculus): 72%

More lines, main results first:

logD [1] | SMILES | also measured
3.1 | CCc1ccc(N(CC(C)C)S(=O)(=O)c2ccc(OCC3CCOCC3)c(CC(=O)O)c2)cc1 | –
5 | CCc1ccc(N(CC(C)C)S(=O)(=O)c2ccc(OCC3CCOCC3)c(S(=N)(=O)CC)c2)cc1 (stereo not drawn) | –
5.4 | CCc1ccc(N(CC(C)C)S(=O)(=O)c2ccc(OCC3CCOCC3)c([S+](C)[O-])c2)cc1 (stereo not drawn) | –
5.3 | CCc1ccc(N(CC(C)C)S(=O)(=O)c2ccc(OCC3CCOCC3)c(S(N)(=O)=O)c2)cc1 | –
4.8 | CCc1ccc(N(CC(C)C)S(=O)(=O)c2ccc(OCC3CCOCC3)c(CC(N)=O)c2)cc1 | –
5.8 | CCc1ccc(N(CC(C)C)S(=O)(=O)c2ccc(OCC3CCOCC3)c(S(C)(=O)=O)c2)cc1 | –
5.9 | CCc1ccc(N(CC(C)C)S(=O)(=O)c2ccc(OCC3CCOCC3)c(CO)c2)cc1 [GSK2981278] | –
6.5 | CCc1ccc(N(CC(C)C)S(=O)(=O)c2ccc(OCC3CCOCC3)c(CC#N)c2)cc1 | –
4.6 | CCc1ccc(N(CC(C)C)S(=O)(=O)c2ccc(OCC3CCOCC3)c(S(C)(=N)=O)c2)cc1 (stereo not drawn) | –
5.2 | CCc1ccc(N(CC(C)C)S(=O)(=O)c2ccc(OCC3CCOCC3)c(S(C)(=O)=NC)c2)cc1 (stereo not drawn) | –
